# System: Human patients with short bowel syndrome
# Assay: Example 1: liver diagnostic biomarkers (total bilirubin, ALT, AST, ALP) in short bowel syndrome patients, every four weeks for 24 weeks
# Type: in vivo
# Design: AST (SGOT) Change from Baseline, Median / ALT (SGPT), Median / TOTAL BILIRUBIN, Median / TOTAL BILIRUBIN Change from Baseline, Median / ALT (SGPT) Change from Baseline, Median / AST (SGOT), Median: unit not given here
# Conditions: 0.05 mg/kg/day
# Experimental: Human patients with short bowel syndrome were divided into three groups: a control group (16 total individuals) to receive placebo, an experimental group (35 total individuals) to receive teduglutide at 0.05 mg/kg/day throughout the study, and an experimental group (32 total individuals) to receive teduglutide at 0.1 mg/kg/day throughout the study. Patients were treated by subcutaneous injection of placebo or the appropriate dose of teduglutide. As individuals with short bowel syndrome are likely to experience associated liver and kidney disease, known biomarkers of liver and kidney function were monitored every four weeks, for 24 weeks. The liver biomarkers tested included total bilirubin, ALT and AST and ALP. The kidney biomarkers tested included urea nitrogen, creatinine and GFR. Before administration of placebo or teduglutide, diagnostic biomarker levels were tested to establish a baseline for each individual.
# To visualize the effect of GLP-2 on the levels of the diagnostic biomarkers, the average change from baseline was calculated for the placebo and teduglutide treated groups for each visit after a baseline was established. The average change from baseline of each group is depicted in FIGS. […]. The numerical figures for each diaanostic biomarker at each time point are depicted in Table 1.
# The efficacy of teduglutide in treating liver dysfunction was further tested by sorting the data into two groups: individuals with abnormal baseline values of liver diagnostic biomarkers; and individuals with normal baseline values of liver diagnostic biomarkers. The mean diagnostic biomarker change from baseline for these two groups is shown for ALT (FIGS. 5 and 6) and AST (FIGS. 7 and 8). […] These changes were significant when compared to baseline levels for the group, and when compared to placebo (see FIGS. 5 and 7).
# The raw data for this sorting is reproduced in Table 2 below.
smiles,measurement,setting,value
CC[C@H](C)[C@H](NC(=O)[C@H](Cc1ccccc1)NC(=O)[C@H](CC(=O)O)NC(=O)[C@H](CCCNC(=N)N)NC(=O)[C@H](C)NC(=O)[C@H](C)NC(=O)[C@H](CC(C)C)NC(=O)[C@H](CC(N)=O)NC(=O)[C@H](CC(=O)O)NC(=O)[C@H](CC(C)C)NC(=O)[C@@H](NC(=O)[C@@H](NC(=O)[C@H](CC(N)=O)NC(=O)[C@H](CCSC)NC(=O)[C@H](CCC(=O)O)NC(=O)[C@H](CC(=O)O)NC(=O)[C@H](CO)NC(=O)[C@H](Cc1ccccc1)NC(=O)[C@H](CO)NC(=O)CNC(=O)[C@H](CC(=O)O)NC(=O)CNC(=O)[C@@H](N)Cc1c[nH]cn1)[C@@H](C)O)[C@@H](C)CC)C(=O)N[C@@H](CC(N)=O)C(=O)N[C@@H](Cc1c[nH]c2ccccc12)C(=O)N[C@@H](CC(C)C)C(=O)N[C@H](C(=O)N[C@@H](CCC(N)=O)C(=O)N[C@H](C(=O)N[C@@H](CCCCN)C(=O)N[C@H](C(=O)N[C@H](C(=O)N[C@@H](CC(=O)O)C(=O)O)[C@@H](C)O)[C@@H](C)CC)[C@@H](C)O)[C@@H](C)CC [teduglutide],"ALKALINE PHOSPHATASE Change from Baseline, Mean (SD)",DW4,−24.8 (45.66)
same,"ALKALINE PHOSPHATASE Change from Baseline, Median",DW4,−16.0
same,"ALKALINE PHOSPHATASE, Mean (SD)",DW4,159.5 (90.91)
same,"ALKALINE PHOSPHATASE, Median",DW4,139.0
same,"ALT (SGPT) Change from Baseline, Mean (SD)",DW4,−14.9 (26.39)
same,"ALT (SGPT) Change from Baseline, Median",DW4,−5.0
same,"ALT (SGPT), Mean (SD)",DW4,30.1 (14.08)
same,"ALT (SGPT), Median",DW4,27.0
same,"AST (SGOT) Change from Baseline, Mean (SD)",DW4,−5.5 (24.09)
same,"AST (SGOT) Change from Baseline, Median",DW4,−4.0
same,"AST (SGOT), Mean (SD)",DW4,29.1 (19.23)
same,"AST (SGOT), Median",DW4,27.0
same,"TOTAL BILIRUBIN Change from Baseline, Mean (SD)",DW4,−0.8 (4.31)
same,"TOTAL BILIRUBIN Change from Baseline, Median",DW4,0.0
same,"TOTAL BILIRUBIN, Mean (SD)",DW4,10.4 (9.48)
same,"TOTAL BILIRUBIN, Median",DW4,7.0
same,"ALKALINE PHOSPHATASE Change from Baseline, Mean (SD)",DW8,−24.0 (64.47)
same,"ALKALINE PHOSPHATASE Change from Baseline, Median",DW8,−20.0
same,"ALKALINE PHOSPHATASE, Mean (SD)",DW8,152.2 (84.05)
same,"ALKALINE PHOSPHATASE, Median",DW8,134.0
same,"ALT (SGPT) Change from Baseline, Mean (SD)",DW8,−9.8 (30.38)
same,"ALT (SGPT) Change from Baseline, Median",DW8,−4.0
same,"ALT (SGPT), Mean (SD)",DW8,37.3 (23.71)
same,"ALT (SGPT), Median",DW8,31.5
same,"AST (SGOT) Change from Baseline, Mean (SD)",DW8,−3.2 (19.88)
same,"AST (SGOT) Change from Baseline, Median",DW8,−3.0
same,"AST (SGOT), Mean (SD)",DW8,33.5 (18.56)
same,"AST (SGOT), Median",DW8,28.0
same,"TOTAL BILIRUBIN Change from Baseline, Mean (SD)",DW8,−0.4 (4.78)
same,"TOTAL BILIRUBIN Change from Baseline, Median",DW8,−1.0
same,"TOTAL BILIRUBIN, Mean (SD)",DW8,10.8 (8.86)
same,"TOTAL BILIRUBIN, Median",DW8,8.0
same,"ALKALINE PHOSPHATASE Change from Baseline, Mean (SD)",DW12,−39.4 (48.95)
same,"ALKALINE PHOSPHATASE Change from Baseline, Median",DW12,−24.0
same,"ALKALINE PHOSPHATASE, Mean (SD)",DW12,143.5 (73.92)
same,"ALKALINE PHOSPHATASE, Median",DW12,130.5
same,"ALT (SGPT) Change from Baseline, Mean (SD)",DW12,−12.7 (29.55)
same,"ALT (SGPT) Change from Baseline, Median",DW12,−10.0
same,"ALT (SGPT), Mean (SD)",DW12,34.6 (24.30)
same,"ALT (SGPT), Median",DW12,26.0
same,"AST (SGOT) Change from Baseline, Mean (SD)",DW12,−5.9 (19.28)
same,"AST (SGOT) Change from Baseline, Median",DW12,−8.0
same,"AST (SGOT), Mean (SD)",DW12,29.2 (15.48)
same,"AST (SGOT), Median",DW12,26.5
same,"TOTAL BILIRUBIN Change from Baseline, Mean (SD)",DW12,−1.8 (5.75)
same,"TOTAL BILIRUBIN Change from Baseline, Median",DW12,−1.0
same,"TOTAL BILIRUBIN, Mean (SD)",DW12,9.4 (6.65)
same,"TOTAL BILIRUBIN, Median",DW12,7.0
same,"ALKALINE PHOSPHATASE Change from Baseline, Mean (SD)",DW16,−12.3 (69.90)
same,"ALKALINE PHOSPHATASE Change from Baseline, Median",DW16,−20.5
same,"ALKALINE PHOSPHATASE, Mean (SD)",DW16,168.2 (128.08)
same,"ALKALINE PHOSPHATASE, Median",DW16,134.0
same,"ALT (SGPT) Change from Baseline, Mean (SD)",DW16,−3.2 (24.76)
same,"ALT (SGPT) Change from Baseline, Median",DW16,−2.5
same,"ALT (SGPT), Mean (SD)",DW16,39.5 (39.44)
same,"ALT (SGPT), Median",DW16,28.0
same,"AST (SGOT) Change from Baseline, Mean (SD)",DW16,−4.3 (11.75)
same,"AST (SGOT) Change from Baseline, Median",DW16,−1.5
same,"AST (SGOT), Mean (SD)",DW16,29.3 (12.05)
same,"AST (SGOT), Median",DW16,25.0
same,"TOTAL BILIRUBIN Change from Baseline, Mean (SD)",DW16,−1.3 (9.00)
same,"TOTAL BILIRUBIN Change from Baseline, Median",DW16,−1.0
same,"TOTAL BILIRUBIN, Mean (SD)",DW16,10.0 (8.90)
same,"TOTAL BILIRUBIN, Median",DW16,7.0
same,"ALKALINE PHOSPHATASE Change from Baseline, Mean (SD)",DW20,−36.9 (49.89)
same,"ALKALINE PHOSPHATASE Change from Baseline, Median",DW20,−25.0
same,"ALKALINE PHOSPHATASE, Mean (SD)",DW20,144.2 (76.09)
same,"ALKALINE PHOSPHATASE, Median",DW20,136.5
same,"ALT (SGPT) Change from Baseline, Mean (SD)",DW20,−16.0 (28.73)
same,"ALT (SGPT) Change from Baseline, Median",DW20,−5.0
same,"ALT (SGPT), Mean (SD)",DW20,29.7 (13.35)
same,"ALT (SGPT), Median",DW20,26.0
same,"AST (SGOT) Change from Baseline, Mean (SD)",DW20,−8.0 (14.96)
same,"AST (SGOT) Change from Baseline, Median",DW20,−4.0
same,"AST (SGOT), Mean (SD)",DW20,26.1 (7.02)
same,"AST (SGOT), Median",DW20,25.0
same,"TOTAL BILIRUBIN Change from Baseline, Mean (SD)",DW20,−0.8 (5.69)
same,"TOTAL BILIRUBIN Change from Baseline, Median",DW20,0.0
same,"TOTAL BILIRUBIN, Mean (SD)",DW20,9.7 (6.78)
same,"TOTAL BILIRUBIN, Median",DW20,9.0
same,"ALKALINE PHOSPHATASE Change from Baseline, Mean (SD)",DW24,−11.6 (166.86)
same,"ALKALINE PHOSPHATASE Change from Baseline, Median",DW24,−29.0
same,"ALKALINE PHOSPHATASE, Mean (SD)",DW24,169.6 (204.22)
same,"ALKALINE PHOSPHATASE, Median",DW24,131.0
same,"ALT (SGPT) Change from Baseline, Mean (SD)",DW24,−13.5 (24.40)

# — patent US20130072430A1, “METHODS FOR TREATMENT OR PROPHYLAXIS OF KIDNEY OR LIVER DYSFUNCTION” (NPS PHARMACEUTICALS, INC., priority 2010, published 2013)
